Measured values as given in ChEMBL document CHEMBL3217509, “Discovery of an HIV integrase inhibitor with an excellent resistance profile” (Medchemcomm, 2013).
Each block holds one molecule with its values, some of them ahead of it. The source made the active and inactive calls. The calls are words filed in the database; no cut-off is given here.

Experiments:
[1] = Intrinsic clearance in human hepatocytes assessed assessed per million of cells by LC-MS/MS analysis; assay type: ADME, cell-based, Hepatocyte; details: read-out: CLH
[2] = test system: Human immunodeficiency virus 1; assay: Resistance ratio of IC50 for MLV pseudotyped HIV1 NL4-3 expressing integrase G140S mutant to IC50 for MLV pseudotyped HIV1 NL4-3 expressing wild type integrase; assay type: functional
[3] = test system: Human immunodeficiency virus 1; assay: Antiviral activity against HIV1 HT92599 infected in human PBMC after 5 days by human JC53BL cell-based beta-galactosidase reporter gene assay; assay type: functional, organism-based; details: Human immunodeficiency virus 1, HT92599, JC53BL, 120 h
[4] = Plasma protein binding in human; assay type: ADME, cell-free; details: read-out: PPB (converted)
[5] = test system: Rattus norvegicus; assay: Toxicity in rat assessed as histopathological abnormalities at 25 times antiviral IC50 administered for 7 days; assay type: organism-based; details: in vivo, 168 h
[6] = test system: Human immunodeficiency virus 1; assay: Antiviral activity against HIV1 infected in human MT2 cells assessed as emergence of breakthrough at 10 times IC50; assay type: functional, organism-based
[7] = test system: Human immunodeficiency virus 1; assay: Resistance ratio of IC50 for MLV pseudotyped HIV1 NL4-3 expressing integrase E92Q mutant to IC50 for MLV pseudotyped HIV1 NL4-3 expressing wild type integrase; assay type: functional
[8] = Half life in rat at 2 mg/kg, po and 2 mg/kg, iv; assay type: ADME, organism-based; details: in vivo
[9] = test system: Human immunodeficiency virus 1; assay: Resistance ratio of IC50 for MLV pseudotyped HIV1 NL4-3 expressing integrase N155H mutant to IC50 for MLV pseudotyped HIV1 NL4-3 expressing wild type integrase; assay type: functional
[10] = Intrinsic clearance in human liver microsomes assessed per mg of protein by LC-MS/MS analysis in presence of UDPGA; assay type: ADME; details: read-out: CLH
[11] = Clearance in dog liver microsomes assessed per mg of protein in presence of UDPGA; assay type: ADME, Canis lupus familiaris; details: read-out: CLH
[12] = Cytotoxicity against human MT2 cells after 3 days by CellTitre-Glo assay; assay type: cell-based
[13] = Half life in healthy human at 100 ug, iv; assay type: ADME, organism-based; details: in vivo
[14] = test system: Human immunodeficiency virus 1; assay: Antiviral activity against HIV1 NL4-3 infected in human PBMC after 5 days by human JC53BL cell-based beta-galactosidase reporter gene assay; assay type: functional, organism-based; details: Human immunodeficiency virus 1, NL4-3, JC53BL, 120 h
[15] = test system: Human immunodeficiency virus 1; assay: Antiviral activity against HIV1 NL4-3 infected in human MT2 cells after 3 days by human JC53BL cell-based beta-galactosidase reporter gene assay; assay type: functional, organism-based; details: Human immunodeficiency virus 1, NL4-3, JC53BL, 72 h
[16] = test system: Human immunodeficiency virus 1; assay: Antiviral activity against HIV1 UG92037 infected in human PBMC after 5 days by human JC53BL cell-based beta-galactosidase reporter gene assay; assay type: functional, organism-based; details: Human immunodeficiency virus 1, UG92037, JC53BL, 120 h
[17] = test system: Human immunodeficiency virus 1; assay: Resistance ratio of IC50 for MLV pseudotyped HIV1 NL4-3 expressing integrase V72I/F121Y/T125K mutant to IC50 for MLV pseudotyped HIV1 NL4-3 expressing wild type integrase; assay type: functional
[18] = Volume of distribution at steady state in dog at 0.1 mg/kg, iv; assay type: ADME, organism-based, Canis lupus familiaris; design: dose 0.1 mg/kg, route intravenous; details: in vivo, read-out: Vdss
[19] = test system: Human immunodeficiency virus 1; assay: Resistance ratio of IC50 for MLV pseudotyped HIV1 NL4-3 expressing integrase G140A mutant to IC50 for MLV pseudotyped HIV1 NL4-3 expressing wild type integrase; assay type: functional
[20] = test system: Human immunodeficiency virus 1; assay: Resistance ratio of IC50 for MLV pseudotyped HIV1 NL4-3 expressing integrase G140S/Q148h mutant to IC50 for MLV pseudotyped HIV1 NL4-3 expressing wild type integrase; assay type: functional
[21] = test system: Human immunodeficiency virus 1; assay: Resistance ratio of IC50 for MLV pseudotyped HIV1 NL4-3 expressing integrase E92Q/N155H mutant to IC50 for MLV pseudotyped HIV1 NL4-3 expressing wild type integrase; assay type: functional
[22] = test system: Human immunodeficiency virus 1; assay: Antiviral activity against HIV1 HT92596 infected in human PBMC after 5 days by human JC53BL cell-based beta-galactosidase reporter gene assay; assay type: functional, organism-based; details: Human immunodeficiency virus 1, HT92596, JC53BL, 120 h
[23] = Lipophilicity, log D of the compound; assay type: physicochemical; details: octanol/water
[24] = Partition coefficient, pKa of the compound; assay type: physicochemical; details: octanol/water
[25] = test system: Human immunodeficiency virus 1; assay: Inhibition of MLV pseudotyped HIV1 NL4-3 expressing integrase G140S/Q148K mutant; assay type: functional, organism-based
[26] = Volume of distribution at steady state in rat at 2 mg/kg, po and 2 mg/kg, iv; assay type: ADME, organism-based; details: in vivo, read-out: Vdss
[27] = test system: Human immunodeficiency virus 1; assay: Antiviral activity against HIV1 BaL infected in human PBMC after 5 days by human JC53BL cell-based beta-galactosidase reporter gene assay; assay type: functional, organism-based; details: Human immunodeficiency virus 1, BaL, 120 h
[28] = test system: Human immunodeficiency virus 1; assay: Resistance ratio of IC50 for MLV pseudotyped HIV1 NL4-3 expressing integrase S153Y mutant to IC50 for MLV pseudotyped HIV1 NL4-3 expressing wild type integrase; assay type: functional
[29] = Inhibition of DNA polymerase beta (unknown origin); design: species or system Homo sapiens
[30] = Clearance in rat hepatocytes assessed per million of cells; assay type: ADME, cell-based, Hepatocyte; details: read-out: CLH
[31] = Selectivity ratio of CC50 for HIV1 NL4-3 infected in human MT2 cells to IC50 for human MT2 cells; assay type: ADME, cell-based; details: read-out: Ratio CC50/IC50
[32] = test system: Rattus norvegicus; assay: Clearance in rat at 2 mg/kg, po and 2 mg/kg, iv; assay type: ADME, organism-based; details: in vivo
[33] = Clearance in healthy human at 100 ug, iv; assay type: ADME, organism-based; details: in vivo
[34] = test system: Human immunodeficiency virus 1; assay: Resistance ratio of IC50 for MLV pseudotyped HIV1 NL4-3 expressing integrase Q148H mutant to IC50 for MLV pseudotyped HIV1 NL4-3 expressing wild type integrase; assay type: functional
[35] = Oral bioavailability in rat at 2 mg/kg; assay type: ADME, organism-based; details: in vivo
[36] = Plasma protein binding in rat; assay type: ADME, cell-free; details: read-out: PPB
[37] = test system: Human immunodeficiency virus 1; assay: Resistance ratio of IC50 for MLV pseudotyped HIV1 NL4-3 expressing integrase T97A mutant to IC50 for MLV pseudotyped HIV1 NL4-3 expressing wild type integrase; assay type: functional
[38] = test system: Human immunodeficiency virus 1; assay: Antiviral activity against HIV1 CMU06 infected in human PBMC after 5 days by human JC53BL cell-based beta-galactosidase reporter gene assay; assay type: functional, organism-based; details: Human immunodeficiency virus 1, CMU06, JC53BL, 120 h
[39] = test system: Human immunodeficiency virus 1; assay: Resistance ratio of IC50 for MLV pseudotyped HIV1 NL4-3 expressing integrase E138A mutant to IC50 for MLV pseudotyped HIV1 NL4-3 expressing wild type integrase; assay type: functional
[40] = test system: Human immunodeficiency virus 1; assay: Resistance ratio of IC50 for MLV pseudotyped HIV1 NL4-3 expressing integrase T125K/F121Y mutant to IC50 for MLV pseudotyped HIV1 NL4-3 expressing wild type integrase; assay type: functional
[41] = Plasma protein binding in dog; assay type: ADME, cell-free, Canis lupus familiaris; details: read-out: PPB (converted)
[42] = Volume of distribution at steady state in healthy human at 100 ug, iv; assay type: ADME, organism-based; details: in vivo, read-out: Vdss
[43] = Inhibition of DNA polymerase gamma (unknown origin); design: species or system Homo sapiens
[44] = Clearance in rat liver microsomes assessed per mg of protein in presence of UDPGA; assay type: ADME; details: read-out: CLH
[45] = Inhibition of DNA polymerase alpha (unknown origin); design: species or system Homo sapiens
[46] = target: Human immunodeficiency virus type 1 integrase (Human immunodeficiency virus 1, UniProt Q7ZJM1); assay: Inhibition of HIV1 HXB2 full length amino terminal 6-HIs tagged integrase expressed in Escherichia coli using [3H]thymidine-labeled DNA/biotinylated ds-DNA as substrate assessed as inhibition of strand transfer after 50 mins by scintillation proximity assay
Sequence of Human immunodeficiency virus type 1 integrase (Q7ZJM1 whole entry): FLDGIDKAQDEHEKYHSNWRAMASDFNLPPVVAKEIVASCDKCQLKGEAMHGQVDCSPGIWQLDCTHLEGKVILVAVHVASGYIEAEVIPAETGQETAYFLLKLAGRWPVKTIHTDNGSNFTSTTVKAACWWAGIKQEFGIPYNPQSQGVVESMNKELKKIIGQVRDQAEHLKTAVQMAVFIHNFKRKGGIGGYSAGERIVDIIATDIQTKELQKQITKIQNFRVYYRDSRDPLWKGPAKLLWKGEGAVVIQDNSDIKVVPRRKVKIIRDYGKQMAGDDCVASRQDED

[47] = Activity at UGT1A2 (unknown origin) assessed as metabolite metabolism; assay type: ADME; details: human
[48] = test system: Canis familiaris; assay: Clearance in dog at 0.1 mg/kg, iv; assay type: ADME, organism-based, Canis lupus familiaris; design: dose 0.1 mg/kg, route intravenous; details: in vivo
[49] = Clearance in rat liver microsomes assessed per mg of protein; assay type: ADME; details: read-out: CLH
[50] = test system: Human immunodeficiency virus 1; assay: Antiviral activity against HIV1 UG94118 infected in human PBMC after 5 days by human JC53BL cell-based beta-galactosidase reporter gene assay; assay type: functional, organism-based; details: Human immunodeficiency virus 1, UG94118, JC53BL, 120 h
[51] = Drug metabolism in iv dosed dog urine; assay type: ADME, organism-based, Canis lupus familiaris; details: in vivo
[52] = test system: Human immunodeficiency virus 1; assay: Resistance ratio of IC50 for MLV pseudotyped HIV1 NL4-3 expressing integrase F121Y mutant to IC50 for MLV pseudotyped HIV1 NL4-3 expressing wild type integrase; assay type: functional
[53] = test system: Human immunodeficiency virus 1; assay: Antiviral activity against HIV1 ZA97003 infected in human PBMC after 5 days by human JC53BL cell-based beta-galactosidase reporter gene assay; assay type: functional, organism-based; details: Human immunodeficiency virus 1, ZA97003, JC53BL, 120 h
[54] = Clearance in dog hepatocytes assessed per million of cells; assay type: ADME, cell-based, Canis lupus familiaris, Hepatocyte; details: read-out: CLH
[55] = Half life in dog at 0.1 mg/kg, iv; assay type: ADME, organism-based, Canis lupus familiaris; design: dose 0.1 mg/kg, route intravenous; details: in vivo
[56] = test system: Human immunodeficiency virus 1; assay: Resistance ratio of IC50 for MLV pseudotyped HIV1 NL4-3 expressing integrase T66I/S153Y mutant to IC50 for MLV pseudotyped HIV1 NL4-3 expressing wild type integrase; assay type: functional
[57] = test system: Human immunodeficiency virus 1; assay: Antiviral activity against HIV1 SF162 infected in human PBMC after 5 days by human JC53BL cell-based beta-galactosidase reporter gene assay; assay type: functional, organism-based; details: Human immunodeficiency virus 1, SF162, JC53BL, 120 h
[58] = test system: Human immunodeficiency virus 1; assay: Antiviral activity against HIV1 BR92004 infected in human PBMC after 5 days by human JC53BL cell-based beta-galactosidase reporter gene assay; assay type: functional, organism-based; details: Human immunodeficiency virus 1, BR92004, JC53BL, 120 h
[59] = Intrinsic clearance in human liver microsomes assessed per mg of protein by LC-MS/MS analysis; assay type: ADME; details: read-out: CLH
[60] = test system: Human immunodeficiency virus 1; assay: Resistance ratio of IC50 for MLV pseudotyped HIV1 NL4-3 expressing integrase Q148K mutant to IC50 for MLV pseudotyped HIV1 NL4-3 expressing wild type integrase; assay type: functional
[61] = test system: Human immunodeficiency virus 1; assay: Resistance ratio of IC50 for MLV pseudotyped HIV1 NL4-3 expressing integrase V72I/F121Y/T125K/V151L mutant to IC50 for MLV pseudotyped HIV1 NL4-3 expressing wild type integrase; assay type: functional

SMILES: COc1cc(F)ccc1Cn1ccc2c3c(ncc21)C(=O)N(O)CC3 [PF-04776548]
hepatocyte CLint [1]: 32.7 µL/min/1e6 cells
Ratio IC50 [2]: <10
EC50 [3]: 0.37 nM
fraction unbound [4]: 0.08
Activity [5]: Non-toxic
Activity [6]: Active
Ratio IC50 [7]: <10
half-life [8]: 0.3 h
Ratio IC50 [9]: <10
microsomal CLint [10]: 28 µL/min/mg
microsomal CLint [11]: 21 µL/min/mg
CC50 at 72 h [12]: 7360 nM
half-life [13]: 2.8 h
EC50 [14]: 0.48 nM
IC50 [15]: 1.5 nM
EC50 [16]: 0.84 nM
Ratio IC50 [17]: <10
Vd [18]: 2 L/kg
Ratio IC50 [19]: <10
Ratio IC50 [20]: <10
Ratio IC50 [21]: <10
EC50 [22]: 0.84 nM
logD [23]: 2.1
pKa [24]: 7.6
inhibition [25]: inactive
Vd [26]: 3 L/kg
EC50 [27]: 2.22 nM
Ratio IC50 [28]: <10
IC50 [29]: > 100000 nM
hepatocyte CLint [30]: 33 µL/min/1e6 cells
selectivity ratio [31]: 4800
clearance [32]: 98 mL/min/kg
clearance [33]: 18 mL/min/kg
Ratio IC50 [34]: <10
bioavailability [35]: 1%
fraction unbound [36]: 0.09
Ratio IC50 [37]: <10
EC50 [38]: 0.61 nM
Ratio IC50 [39]: <10
Ratio IC50 [40]: <10
fraction unbound [41]: 0.16
Vd [42]: 5.7 L/kg
IC50 [43]: 7100 nM
microsomal CLint [44]: 43 µL/min/mg
IC50 [45]: > 100000 nM
IC50 [46]: 40.5 nM
Activity [47]: Not Active
clearance [48]: 24 mL/min/kg
microsomal CLint [49]: 26 µL/min/mg
EC50 [50]: 6.68 nM
Drug metabolism [51]: Active
Ratio IC50 [52]: <10
EC50 [53]: 0.15 nM
hepatocyte CLint [54]: 17 µL/min/1e6 cells
half-life [55]: 1.2 h
Ratio IC50 [56]: <10
EC50 [57]: 1.68 nM
EC50 [58]: 0.44 nM
microsomal CLint [59]: 8.3 µL/min/mg
Ratio IC50 [60]: <10
Ratio IC50 [61]: <10

hepatocyte CLint [1]: 34.3 µL/min/1e6 cells
microsomal CLint [10]: 18 µL/min/mg
IC50 [15]: 19 nM
microsomal CLint [59]: 12.5 µL/min/mg
SMILES: COc1cc(Cn2ccc3c4c(ncc32)C(=O)N(O)CC4)ccc1F
